Measurements published in the NIST ThermoML archive (doi:10.1021/je900550v).

Conditions: 101.33 kPa, Liquid; for speed of sound: Sing-around technique in a fixed-path interferometer; for mass density: Vibrating tube method

CC(=O)[O-].C[NH2+]CCO [N-methyl-2-hydroxyethylammonium acetate]
Conditions	mass density [kg/m3]	speed of sound [m/s]	viscosity [mPa·s]
278.15 K	1112.83	1848.3	–
278.4 K	1112.68	1847.6	–
278.65 K	1112.54	1846.8	–
278.9 K	1112.38	1846.1	–
279.15 K	1112.23	1845.4	–
279.4 K	1112.08	1844.7	–
279.65 K	1111.93	1843.9	–
279.9 K	1111.78	1843.2	–
280.15 K	1111.63	1842.5	–
280.4 K	1111.48	1841.8	–
280.65 K	1111.33	1841	–
280.9 K	1111.18	1840.3	–
281.15 K	1111.03	1839.6	–
281.4 K	1110.88	1838.9	–
281.65 K	1110.74	1838.2	–
281.9 K	1110.58	1837.5	–
282.15 K	1110.43	1836.8	–
282.4 K	1110.28	1836.1	–
282.65 K	1110.13	1835.4	–
282.9 K	1109.98	1834.7	–
283.15 K	1109.83	1834	–
283.4 K	1109.68	1833.3	–
283.65 K	1109.53	1832.6	–
283.9 K	1109.38	1832	–
284.15 K	1109.22	1831.3	–
284.4 K	1109.07	1830.6	–
284.65 K	1108.92	1829.9	–
284.9 K	1108.77	1829.2	–
285.15 K	1108.62	1828.6	–
285.4 K	1108.47	1827.9	–
285.65 K	1108.32	1827.2	–
285.9 K	1108.17	1826.5	–
286.15 K	1108.02	1825.9	–
286.4 K	1107.86	1825.2	–
286.65 K	1107.71	1824.5	–
286.9 K	1107.56	1823.8	–
287.15 K	1107.41	1823.2	–
287.4 K	1107.26	1822.5	–
287.65 K	1107.11	1821.8	–
287.9 K	1106.95	1821.2	–
288.15 K	1106.8	1820.5	211.24
288.4 K	1106.65	1819.9	–
288.65 K	1106.5	1819.2	–
288.9 K	1106.35	1818.6	–
289.15 K	1106.19	1817.9	–
289.4 K	1106.04	1817.3	–
289.65 K	1105.89	1816.6	–
289.9 K	1105.73	1816	–
290.15 K	1105.58	1815.3	–
290.4 K	1105.43	1814.7	–
290.65 K	1105.28	1814	–
290.9 K	1105.13	1813.4	–
291.15 K	1104.97	1812.7	–
291.4 K	1104.82	1812.1	–
291.65 K	1104.67	1811.4	–
291.9 K	1104.51	1810.8	–
292.15 K	1104.36	1810.1	–
292.4 K	1104.21	1809.5	–
292.65 K	1104.05	1808.8	–
292.9 K	1103.9	1808.2	–
293.15 K	1103.76	1807.5	145.8
293.4 K	1103.61	1806.9	–
293.65 K	1103.46	1806.3	–
293.9 K	1103.32	1805.6	–
294.15 K	1103.17	1805	–
294.4 K	1103.02	1804.3	–
294.65 K	1102.88	1803.7	–
294.9 K	1102.73	1803.1	–
295.15 K	1102.59	1802.4	–
295.4 K	1102.44	1801.8	–
295.65 K	1102.29	1801.2	–
295.9 K	1102.14	1800.5	–
296.15 K	1102	1799.9	–
296.4 K	1101.85	1799.2	–
296.65 K	1101.7	1798.6	–
296.9 K	1101.56	1798	–
297.15 K	1101.41	1797.3	–
297.4 K	1101.26	1796.7	–
297.65 K	1101.11	1796	–
297.9 K	1100.97	1795.4	–
298.15 K	1100.83	1794.8	106.06
298.4 K	1100.67	1794.1	–
298.65 K	1100.53	1793.5	–
298.9 K	1100.38	1792.9	–
299.15 K	1100.23	1792.2	–
299.4 K	1100.08	1791.6	–
299.65 K	1099.93	1791	–
299.9 K	1099.78	1790.3	–
300.15 K	1099.63	1789.7	–
300.4 K	1099.48	1789	–
300.65 K	1099.34	1788.4	–
300.9 K	1099.19	1787.8	–
301.15 K	1099.04	1787.1	–
301.4 K	1098.89	1786.5	–
301.65 K	1098.74	1785.8	–
301.9 K	1098.59	1785.2	–
302.15 K	1098.44	1784.6	–
302.4 K	1098.29	1783.9	–
302.65 K	1098.14	1783.3	–
302.9 K	1097.99	1782.6	–
303.15 K	1097.84	1782	78.7
303.4 K	1097.69	1781.3	–
303.65 K	1097.54	1780.7	–
303.9 K	1097.4	1780.2	–
304.15 K	1097.25	1779.6	–
304.4 K	1097.1	1779	–
304.65 K	1096.95	1778.3	–
304.91 K	1096.79	1777.7	–
305.15 K	1096.64	1777	–
305.4 K	1096.49	1776.4	–
305.65 K	1096.34	1775.7	–
305.9 K	1096.19	1775.1	–
306.15 K	1096.04	1774.5	–
306.4 K	1095.89	1773.8	–
306.65 K	1095.74	1773.2	–
306.9 K	1095.59	1772.5	–
307.15 K	1095.44	1771.9	–
307.4 K	1095.29	1771.3	–
307.65 K	1095.14	1770.6	–
307.9 K	1094.98	1770	–
308.15 K	–	–	60.03
